Laboratory results: patent US20120142715A1, “POLYMORPH OF [4,6-BIS(DIMETHYLAMINO)-2-(4-BENZYL)PYRIMIDIN-5-YL]” (BOEHRINGER INGELHEIM INTERNATIONAL GMBH, priority 2009, published 2012)
Counter-ions that a name gives are not always drawn.

Legend:
[1] = XRPD analysis of crystallinity after heat-treatment; format: physicochemical; conditions: for change in crystallinity (XRPD) as a result of heat treatment: heated at 80° C. under reduced pressure for 15 hours, vs sample kept at about 25° and atmospheric pressure
Procedure: Effect of heat-treatment on crystallinity: Applicants carried out an XRPD analysis of samples of the Type I and Type II ethylenediamine salts exposed to elevated temperature (80° C.), and the results are shown in FIG. 3. In FIG. 3, the top pattern A-1 was obtained on a sample of the Type II ethylenediamine salt maintained at atmospheric pressure and at about 25° prior to measuring the XRPD reflections. The pattern A-2 was obtained from a sample of the Type II ethylenediamine salt which was heated at 80° C. under reduced pressure for 15 hours prior to measuring the XRPD reflections.
The bottom pattern B-1 was obtained on a sample of the Type I ethylenediamine salt which was maintained at atmospheric pressure and at about 25° prior to measuring the XRPD reflections. The pattern B-2 was obtained from a sample of the Type I ethylenediamine salt which was heated at 80° C. under reduced pressure for 15 hours prior to measuring the XRPD reflections.
XRPD data were recorded with a Rigaku Miniflex II powder diffractometer (The Woodlands, Tex.). The radiation was CuKa (30 kV, 15 mA). Data were collected at 25° C. from 3 to 35 degrees 2θ at 0.02 degrees per step and 1.67 sec per step. Samples were prepared on Silicon (510) specimen holders as a thin layer of powdered material without solvent.

[2] = DSC and TGA thermal events / weight loss at elevated temperature; format: physicochemical
Procedure: Weight loss at elevated temperature: Differences in thermal characteristics between the Type I and Type II ethylenediamine salts were also observed using differential scanning calorimetry (DSC), thermal gravimetric analysis (TGA) and dynamic vapor sorption (DVS) studies.
DSC and TGA thermograms of the Type II ethylenediamine salt (FIG. 4) indicate minimal loss of residual solvent up to 100° C. (about 0.16% which is controllable by more thorough drying). […] A first endothermic peak appears at about 192° C. with about 5.6% of total weight loss in TGA at corresponding temperature region (140° C. to 210° C.). This weight loss corresponds roughly to the theoretical weight loss (5.99 wt %) of ethylenediamine from the ethylenediamine salt of the compound of formula (I) (which contains 0.50 molar equivalents of ethylenediamine). […] The following endothermic peak is shown at 232° C. which is similar to the melting point of the free-acid form of the compound of formula (I).
There is about 3.8% weight loss at 20° C. to 70° C., which corresponds to the loss of water. A major endotherm at 118° C. to 134° C. corresponds to the melting of the ethylenediamine salt with volatilization, corresponding to the loss of ethanol and some ethylenediamine (about 4.4%). Further loss of ethylenediamine occurs at about 147° C. to 160° C. Above 165° C., melting and decomposition of the free-acid of the compound of formula (I) take place.
DSC was carried out using TA Instruments Q1000 Differential Scanning Calorimeter. Samples were placed in sealed aluminum pans for analysis with an empty aluminum pan as the reference. A heating rate of 10° C./min was employed over a temperature range from 20° C. to 300° C.
TGA was carried out using TA Instruments Q500 Thermogravimetric analyzer. Samples were placed into an platinum sample pan. A heating rate of 10° C./min was employed over a temperature range from 25° C. to 300° C.

[3] = Dynamic vapor sorption (water sorption/desorption); format: physicochemical; conditions: for hygroscopicity (in words): DVS; for moisture gain / water uptake: 85% relative humidity
Procedure: Water sorption/desorption profiles: Water sorption/desorption profiles of the Type II ethylenediamine salt are shown in FIG. 6. […] A similar water sorption/desorption study was carried out on the Type I ethylenediamine salt (FIG. 7). […] The sorption of water caused a form change in the Type I ethylenediamine salt which was observed using XRPD analysis.
Vapor sorption/desorption was carried out using Surface Measurement Systems DVS-HT. Samples were placed into a foil insert placed on a sample pan. […] The equilibrium point of each step was reached when 0.002% of weight change was reached.

[4] = cited from earlier work

Structure (SMILES) | thermal stability compared with the other polymorph (XRPD study) ([1]; 80° C. heat treatment) | change in crystallinity (XRPD) as a result of heat treatment [1] | total weight loss in TGA (loss of ethylenediamine) ([2]; 140° C. to 210° C., first endothermic peak at about 192° C.) | Onset of event: Melting and loss of ethylenediame ([2]; DSC/TGA, 10° C./min) [°C] | Onset of event: Melting of the free-acid of compound of formula (I) ([2]; DSC/TGA, 10° C./min) [°C] | loss of residual solvent (TGA) ([2]; up to 100° C.) | proneness to hydration compared with the other polymorph [3] | hygroscopicity (in words) ([3]; 25° C.) | moisture gain / water uptake ([3]; 25° C.) | thermal behavior in DSC and TGA thermograms [2] | weight loss (loss of water) ([2]; 20° C. to 70° C.) | Onset of event: Loss of water ([2]; DSC/TGA, 10° C./min) [°C] | Onset of event: Melting and loss of ethanol and ethylenediamine ([2]; DSC/TGA, 10° C./min) [°C] | weight loss (loss of ethanol and some ethylenediamine) ([2]; major endotherm at 118° C. to 134° C.) | water uptake ([3]; 70% relative humidity, 25° C.) [%] | effect of water sorption on solid form (XRPD) ([3]; after sorption of water) | weight loss in thermogravimetric analysis (attributed to loss of ethanol) ([4]; from 125° C. to 150° C.) | weight loss in thermogravimetric analysis ([4]; from about 30° C. to about 75° C.)
CN(C)c1nc(Cc2ccc(NC(=O)c3ccc(C(F)(F)F)cc3)cc2)nc(N(C)C)c1CC(=O)O [Type II ethylenediamine salt, ethylenediamine salt of [4,6-bis(dimethylamino)-2-(4-{[4-(trifluoromethyl)benzoyl]amino}benzyl)pyrimidin-5-yl]acetic acid] | more thermally stable | no noticeable change in the crystallinity | about 5.6% | 160 | 225 | about 0.16% | less prone to hydration | non-hygroscopic | about 0.08% | – | – | – | – | – | – | – | – | –
CN(C)c1nc(Cc2ccc(NC(=O)c3ccc(C(F)(F)F)cc3)cc2)nc(N(C)C)c1CC(=O)O [Type I ethylenediamine salt, ethylenediamine salt of [4,6-bis(dimethylamino)-2-(4-{[4-(trifluoromethyl)benzoyl]amino}benzyl)pyrimidin-5-yl]acetic acid] | – | significant change in the crystallinity | – | – | 210 | – | – | significant moisture sorption | ~7% | unstable thermal behavior | about 3.8% | 30 | 120 | about 4.4% | ~6 | form change | larger weight loss | slight weight loss
